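Where inhibition never reached the appropriate level, the endpoint shown equals the highest concentration tested. Otherwise, values were interpolated linearly from a five-concentration, 48-hour dose response in 96-well plates. GI50 = concentration required for 50% inhibition of growth.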 Active and inactive are the calls of the source. Rule as the data show it: active = GI50 up to about 1.1 µM and inactive = higher.
Tests used:
Assay in all cases: growth of human tumour cells (NCI), 48 h
HOP-92 = test system: HOP-92
BT-549 = test system: BT-549
RPMI-8226 = test system: RPMI-8226
SK-MEL-5 = test system: SK-MEL-5
CAKI-1 = test system: CAKI-1
CCRF-CEM = test system: CCRF-CEM
KM12 = test system: KM12
HT-29 = test system: HT-29
Malme-3M = test system: Malme-3M
OVCAR-5 = test system: OVCAR-5
NCI-H226 = test system: NCI-H226
HCC 2998 = test system: HCC 2998
Hs-578T = test system: Hs-578T
EKVX = test system: EKVX
SNB-19 = test system: SNB-19
RXF 393 = test system: RXF 393
OVCAR-3 = test system: OVCAR-3
SK-MEL-28 = test system: SK-MEL-28
SR = test system: SR
M14 = test system: M14
NCI-H522 = test system: NCI-H522
U-251 = test system: U-251
MDA-N = test system: MDA-N
UACC-62 = test system: UACC-62
TK-10 = test system: TK-10
MDA-MB-231 = test system: MDA-MB-231
UACC-257 = test system: UACC-257
LOX IMVI = test system: LOX IMVI
SF-295 = test system: SF-295
HOP-62 = test system: HOP-62
SN12C = test system: SN12C
COLO 205 = test system: COLO 205
HL-60 = test system: HL-60
SK-MEL-2 = test system: SK-MEL-2
NCI/ADR-RES = test system: NCI/ADR-RES
MCF7 = test system: MCF7
NCI-H460 = test system: NCI-H460
HCT-116 = test system: HCT-116
SW-620 = test system: SW-620
OVCAR-4 = test system: OVCAR-4
SNB-75 = test system: SNB-75
A549 = test system: A549
T47D = test system: T47D
UO-31 = test system: UO-31
HCT-15 = test system: HCT-15
NCI-H23 = test system: NCI-H23
786-0 = test system: 786-0
DU-145 = test system: DU-145
PC-3 = test system: PC-3
MDA-MB-435 = test system: MDA-MB-435
SF-268 = test system: SF-268
SK-OV-3 = test system: SK-OV-3
ACHN = test system: ACHN
IGROV-1 = test system: IGROV-1
OVCAR-8 = test system: OVCAR-8
K562 = test system: K562
MOLT-4 = test system: MOLT-4
SF-539 = test system: SF-539

Measured: GI50

O=[N+]([O-])c1cc(-[n+]2cc([O-])on2)ccc1Cl
inactive: HOP-92 19.2 µM | BT-549 19.9 µM | RPMI-8226 24.3 µM | SK-MEL-5 10.2 µM | CAKI-1 2.44 µM | CCRF-CEM 23.6 µM | KM12 22 µM | HT-29 15.1 µM | Malme-3M 13.6 µM | OVCAR-5 18.1 µM | NCI-H226 83.8 µM | HCC 2998 18.1 µM | Hs-578T 13.6 µM | EKVX 19 µM | SNB-19 14.2 µM | RXF 393 14.8 µM | OVCAR-3 37.3 µM | SK-MEL-28 16.1 µM | SR 29.9 µM | M14 15.5 µM | NCI-H522 17.8 µM | U-251 17 µM | MDA-N 14.9 µM | UACC-62 27.8 µM | TK-10 18.6 µM | MDA-MB-231 17.4 µM | UACC-257 13.8 µM | LOX IMVI 17.9 µM | SF-295 23.7 µM | HOP-62 15.3 µM | SN12C 16.3 µM | COLO 205 27.7 µM | HL-60 35 µM | SK-MEL-2 21.5 µM | NCI/ADR-RES 18 µM | MCF7 19.4 µM | NCI-H460 34.2 µM | HCT-116 16.1 µM | SW-620 13.4 µM | OVCAR-4 14 µM | SNB-75 25.8 µM | A549 31 µM | T47D 16.4 µM | UO-31 17.3 µM | NCI-H23 13.7 µM | 786-0 21.3 µM | DU-145 16.9 µM | PC-3 > 100 µM | MDA-MB-435 27.6 µM | SF-268 22.2 µM | SK-OV-3 33.5 µM | ACHN 16 µM | IGROV-1 24.3 µM | OVCAR-8 20.6 µM | K562 42.4 µM
20.7 µM: HCT-15

COC(=O)C(Cc1ccccc1)OC(=O)C(N)CC(=O)O (stereo not given)
active: SNB-75 < 0.01 µM
inactive: HOP-92 > 100 µM | BT-549 > 100 µM | RPMI-8226 > 100 µM | SK-MEL-5 > 100 µM | CAKI-1 > 100 µM | HT-29 > 100 µM | Malme-3M > 100 µM | OVCAR-5 > 100 µM | NCI-H226 > 100 µM | MOLT-4 > 100 µM | HCC 2998 > 100 µM | Hs-578T > 100 µM | EKVX > 100 µM | SNB-19 > 100 µM | RXF 393 > 100 µM | OVCAR-3 > 100 µM | SK-MEL-28 > 100 µM | SR > 100 µM | M14 > 100 µM | NCI-H522 > 100 µM | MDA-N > 100 µM | UACC-62 > 100 µM | TK-10 > 100 µM | MDA-MB-231 > 100 µM | UACC-257 32.4 µM | SF-295 > 100 µM | HOP-62 > 100 µM | SN12C > 100 µM | COLO 205 > 100 µM | SK-MEL-2 > 100 µM | NCI/ADR-RES > 100 µM | MCF7 > 100 µM | NCI-H460 > 100 µM | HCT-116 > 100 µM | SW-620 > 100 µM | A549 > 100 µM | T47D > 100 µM | UO-31 > 100 µM | NCI-H23 5.11 µM | 786-0 > 100 µM | DU-145 > 100 µM | PC-3 > 100 µM | MDA-MB-435 17.1 µM | SF-268 > 100 µM | SF-539 > 100 µM | SK-OV-3 > 100 µM | ACHN > 100 µM | IGROV-1 > 100 µM | OVCAR-8 > 100 µM | K562 > 100 µM
> 100 µM: HCT-15

O=C1c2cccc3cc([N+](=O)[O-])cc(c23)C(=O)N1O
inactive: HOP-92 57 µM | BT-549 28.6 µM | RPMI-8226 19.4 µM | SK-MEL-5 35.6 µM | CAKI-1 31.7 µM | CCRF-CEM 27 µM | KM12 20.6 µM | HT-29 31 µM | Malme-3M 28.4 µM | OVCAR-5 44.1 µM | NCI-H226 31 µM | MOLT-4 28.1 µM | HCC 2998 25.2 µM | Hs-578T 38.7 µM | EKVX 47.9 µM | SNB-19 43.9 µM | RXF 393 33 µM | OVCAR-3 28.9 µM | SK-MEL-28 45.8 µM | SR 24.5 µM | M14 39.2 µM | NCI-H522 58.7 µM | U-251 41.8 µM | MDA-N 47 µM | UACC-62 23.9 µM | TK-10 25.9 µM | MDA-MB-231 14.2 µM | UACC-257 33.7 µM | LOX IMVI 25.9 µM | SF-295 46.1 µM | HOP-62 32.8 µM | SN12C 33.5 µM | COLO 205 51.1 µM | HL-60 > 100 µM | SK-MEL-2 32.4 µM | NCI/ADR-RES 40.8 µM | MCF7 24.8 µM | NCI-H460 27.2 µM | HCT-116 27 µM | SW-620 38.2 µM | OVCAR-4 34.1 µM | A549 33.6 µM | T47D 37.2 µM | UO-31 31.7 µM | NCI-H23 30.8 µM | 786-0 45.2 µM | DU-145 37.5 µM | PC-3 43.5 µM | MDA-MB-435 34.3 µM | SF-268 85.3 µM | SK-OV-3 46.9 µM | ACHN 28.1 µM | IGROV-1 22.9 µM | OVCAR-8 44.5 µM | K562 36.8 µM
32.7 µM: HCT-15

COC(=O)c1c(C)cccc1C1CN=NC12Cc1cc(C)c(C)cc1C2=O (stereo not given)
inactive: HOP-92 30.4 µM | BT-549 32.4 µM | SK-MEL-5 17.1 µM | CAKI-1 73.1 µM | CCRF-CEM 37.8 µM | KM12 30.5 µM | HT-29 36.8 µM | Malme-3M 57.8 µM | OVCAR-5 > 100 µM | NCI-H226 47.9 µM | MOLT-4 33.9 µM | HCC 2998 > 100 µM | Hs-578T 96.4 µM | EKVX 59.6 µM | SNB-19 44.5 µM | RXF 393 68.4 µM | OVCAR-3 62.4 µM | SK-MEL-28 > 100 µM | M14 40.6 µM | NCI-H522 19.2 µM | U-251 41.6 µM | MDA-N 25.6 µM | UACC-62 69.5 µM | TK-10 51.4 µM | MDA-MB-231 65.9 µM | UACC-257 27.2 µM | LOX IMVI 24.2 µM | SF-295 48.5 µM | HOP-62 > 100 µM | SN12C 75.3 µM | COLO 205 39.4 µM | HL-60 17.5 µM | SK-MEL-2 31 µM | NCI/ADR-RES 27.4 µM | MCF7 33.6 µM | NCI-H460 47.9 µM | HCT-116 34.8 µM | SW-620 52.6 µM | OVCAR-4 52 µM | SNB-75 38.1 µM | A549 27.8 µM | T47D 40.6 µM | UO-31 31.6 µM | NCI-H23 29.9 µM | 786-0 62.4 µM | DU-145 > 100 µM | PC-3 34.7 µM | MDA-MB-435 27.9 µM | SF-268 66.5 µM | SF-539 > 100 µM | SK-OV-3 55.2 µM | ACHN 57.4 µM | IGROV-1 > 100 µM | OVCAR-8 78.7 µM | K562 25.4 µM
30.5 µM: HCT-15
